Consider two molecules from patent US6756526B2, “Drought tolerant plants and methods of increasing drought tolerance in plants” (Kansas State University Research Foundation, priority 2001, dated 2004).

Entries after “also recorded” stand apart in the source; their conditions may differ.

The subject of one assay is PLD. The note with it: tissues or guard cells treated with ABA; cited from earlier work.
Assay [1] concerns wild-type Arabidopsis plants. Put plainly: Progressive drought by withholding irrigation, with ABA spray. The assay is classed as in vivo, Arabidopsis thaliana. The note with it: ABA 10 μM sprayed once a day, wild-type plants under drought. Here is the method: (§1) The depletion of PLDα in guard cells provides a means of assessing the role of PLD in stomatal movement. Stomatal closure was determined by measuring diffusion resistance using a steady-state porometer. Briefly, detached Arabidopsis leaves were floated with the abaxial side downward in a solution containing 5 mM MES-KOH (pH 6.1), 22 mM KCl, and 1 mM CaCl2 for 1 hour under the same light conditions used for growing plants. Leaves then were incubated without or with ABA at indicated concentrations. ABA was made as a 10 mM stock solution in 5% dimethyl sulfoxide (DMSO), and the same amount of DMSO (0.005%) was also added to the control solution in all treatments. Stomatal aperture of detached leaves was measured as diffusion resistance with a steady state porometer using the method of Thimann and S. O. Satler, Relation Between Leaf Senescence and Stomatal Closure: Senescence in Light, 76 Proc. Natl. Acad. Sci. USA, 2295-2298 (1979). For tobacco plants, leaf diffusion resistance was also measured in leaves attached to approximately 2-month-old plants following foliar spraying of ABA at indicated concentrations. Changes in diffusion resistance in response to ABA in both detached and intact leaves were monitored at indicated time intervals. […] Soil moisture in the 0-20 cm soil layer was monitored during drought using a time domain reflectometer. […]

The test system of assay [2] is PLDα-deficient Arabidopsis plants. The assay is described as above. It counts as in vivo, Arabidopsis thaliana. The note with it: ABA 10 μM sprayed once a day, PLDα-deficient plants under drought. As for the experimental part: as §1
Assay [3] deals with wild-type Arabidopsis leaves. Put plainly: Stomatal closure measured as diffusion resistance (steady state porometer) in detached leaves incubated with ABA. It counts as in vivo, Arabidopsis thaliana. As for the experimental part:
(§2) The depletion of PLDα in guard cells provides a means of assessing the role of PLD in stomatal movement. Stomatal closure was determined by measuring diffusion resistance using a steady-state porometer. Briefly, detached Arabidopsis leaves were floated with the abaxial side downward in a solution containing 5 mM MES-KOH (pH 6.1), 22 mM KCl, and 1 mM CaCl2 for 1 hour under the same light conditions used for growing plants. Leaves then were incubated without or with ABA at indicated concentrations. ABA was made as a 10 mM stock solution in 5% dimethyl sulfoxide (DMSO), and the same amount of DMSO (0.005%) was also added to the control solution in all treatments. Stomatal aperture of detached leaves was measured as diffusion resistance with a steady state porometer using the method of Thimann and S. O. Satler, Relation Between Leaf Senescence and Stomatal Closure: Senescence in Light, 76 Proc. Natl. Acad. Sci. USA, 2295-2298 (1979). For tobacco plants, leaf diffusion resistance was also measured in leaves attached to approximately 2-month-old plants following foliar spraying of ABA at indicated concentrations. Changes in diffusion resistance in response to ABA in both detached and intact leaves were monitored at indicated time intervals. Before drought treatment was imposed, Arabidopsis plants were grown in a greenhouse for 6-8 weeks and watered regularly. Soil water content in each pot was adjusted to approximately the same level before drought treatment. Plants were subjected to drought by withholding irrigation and the soil surface in each pot was covered with plastic wraps to minimize evaporation. Soil moisture in the 0-20 cm soil layer was monitored during drought using a time domain reflectometer. When ABA (10 μM) was sprayed on plants in some treatments, control groups of plants were sprayed with water in the same amount as for the ABA treatment. Leaves were collected at various times of drought treatment, and leaf water potential (ψw) was measured with a thermocouple psychrometer.
(§3) Detached Arabidopsis leaves were floated with the abaxial side downward in a solution containing 5 mM MES-KOH (pH 6.1), 22 mM KCl, and 1 mM CaCl2 for 1 hour under the same light conditions used for growing plants. Leaves then were incubated without or with ABA at indicated concentrations. ABA was made as a 10 mM stock solution in 5% dimethyl sulfoxide (DMSO), and the same amount of DMSO (0.005%) was also added to the control solution in all treatments. Stomatal aperture was measured as diffusion resistance with a steady state porometer (Li-COR 1600, Lincoln, Nebr.). The porometer was set for aperture of 0.5 cm^2, pressure of 100 pa, and relative humidity of 30%. Changes in diffusion resistance were monitored on plants at indicated time intervals.

Assay [4] deals with PLDα-depleted (antisense) Arabidopsis leaves. The description is as above. It counts as in vivo, Arabidopsis thaliana. The note with it: PLDα-suppressed leaves. As for the experimental part:
as §2, §3

Assay [5] concerns control tobacco plants (empty vector). Put plainly: Leaf diffusion resistance measured directly on plants after foliar ABA spray. It counts as in vivo, Nicotiana tabacum. As to conditions: 2.5 and 5 μM ABA sprayed, 20 minutes after application, relative to plants sprayed with water. Here is the method: as §1
In assay [6] the test system is protoplasts of barley aleurone and Vicia faba guard cells. The note with it: cited from earlier work.
The next assay deals with guard cell protoplasts. The note with it: PA applied to guard cell protoplasts; cited from earlier work.

Turning to `CC1=CC(=O)CC(C)(C)[C@@]1(O)/C=C/C(C)=C\C(=O)O` [ABA, abscisic acid], the “PLD activity (and gene expression) after ABA” value in the assay with PLD is reported as “increased; also recorded: increases PLD activity”. Also, in assay [1], the “effect on drought resistance (leaf turgidity, leaf water potential, soil water content)” value is “enhanced resistance to drought; also recorded: improves this drought resistance”. Also, the “effect on water loss and drought resistance” value in assay [2] was “no detectable effect”. In addition, the “effect on stomatal closure” value in assay [3] (2 μM ABA, wild-type leaves) was “stimulated stomatal closure”; in assay [4] (2 μM ABA) it was “no effect”. In addition, in assay [3] (10 μM ABA, detached wild-type leaves), the “increase in diffusion resistance (stomatal closure)” value is reported as “approximately twofold”. For the same molecule, in assay [3] (10 μM ABA, wild-type), the “persistence of the ABA effect on diffusion resistance” value was “more than 30 minutes”. For the same molecule, the “ABA-induced increase in diffusion resistance, relative to that observed in wild-type leaves” value in assay [4] (10 μM ABA) was “approximately 50%”. In addition, the “ABA concentration at which diffusion resistance reached a plateau” value in assay [4] (0.5-50 μM ABA tested, 20 minutes) is more than 50 µM. In addition, the “increase in leaf diffusion resistance” value in assay [5] is “about 30%”.
For the molecule phosphatidic acid [PA], in assay [6], the “effect of PA addition compared with ABA” value is “partially mimicked the effect of ABA”. Also, the ionic efflux entry with guard cell protoplasts was “increase in ionic efflux”.
